How the values were obtained:
Test in all cases: KinomeScan
Assay type in all cases: binding
Conditions in all cases: 1uM
BRK = target: T1, BRK (Homo sapiens, UniProt Q13882)
T1 construct: purchased DiscoveRx KINOMEscan

PIK3CA(E545A) = target: T2, PIK3CA(E545A) (Homo sapiens, UniProt P42336, E545A)
T2 construct: purchased DiscoveRx KINOMEscan

EGFR(S752-I759del) = target: T3, EGFR(S752-I759del) (Homo sapiens, UniProt P00533, DEL752-759)
T3 construct: purchased DiscoveRx KINOMEscan

IKK-alpha = target: T4, IKK-alpha (Homo sapiens, UniProt O15111)
T4 construct: purchased DiscoveRx KINOMEscan

MLCK = target: T5, MLCK (Homo sapiens, UniProt Q32MK0)
T5 construct: purchased DiscoveRx KINOMEscan

AMPK-alpha2 = target: T6, AMPK-alpha2 (Homo sapiens, UniProt P54646)
T6 construct: purchased DiscoveRx KINOMEscan

RIPK4 = target: T7, RIPK4 (Homo sapiens, UniProt P57078)
T7 construct: purchased DiscoveRx KINOMEscan

SIK2 = target: T8, SIK2 (Homo sapiens, UniProt Q9H0K1)
T8 construct: purchased DiscoveRx KINOMEscan

KIT-autoinhibited = target: T9, KIT-autoinhibited (Homo sapiens, UniProt P10721)
T9 construct: purchased DiscoveRx KINOMEscan

[1] = target: T10, ABL1(H396P)-phosphorylated (Homo sapiens, UniProt P00519, H396P)
T10 construct: purchased DiscoveRx KINOMEscan

MET = target: T11, MET (Homo sapiens, UniProt P08581)
T11 construct: purchased DiscoveRx KINOMEscan

[2] = target: RPS6KA4(Kin.Dom.2-C-terminal) (Homo sapiens, UniProt O75676)
[3] = target: T12, RPS6KA5(Kin.Dom.1-N-terminal) (Homo sapiens, UniProt O75582)
T12 construct: RPS6KA5(Kin.Dom.1-N-terminal); purchased DiscoveRx KINOMEscan

PIK3C2B = target: T13, PIK3C2B (Homo sapiens, UniProt O00750)
T13 construct: purchased Invitrogen

[4] = target: T14, ABL1(Y253F)-phosphorylated (Homo sapiens, UniProt P00519, Y253F)
T14 construct: purchased DiscoveRx KINOMEscan

MARK1 = target: T15, MARK1 (Homo sapiens, UniProt Q9P0L2)
T15 construct: purchased DiscoveRx KINOMEscan

ABL2 = target: T16, ABL2 (Homo sapiens, UniProt P42684)
T16 construct: purchased DiscoveRx KINOMEscan

[5] = target: T17, EGFR(L747-E749del, A750P) (Homo sapiens, UniProt P00533, A750P/DEL747-749)
T17 construct: purchased DiscoveRx KINOMEscan

EPHB3 = target: T18, EPHB3 (Homo sapiens, UniProt P54753)
T18 construct: purchased DiscoveRx KINOMEscan

[6] = target: RPS6KA5(Kin.Dom.2-C-terminal) (Homo sapiens, UniProt O75582)
STK36 = target: T19, STK36 (Homo sapiens, UniProt Q9NRP7)
T19 construct: purchased DiscoveRx KINOMEscan

MINK = target: T20, MINK (Homo sapiens, UniProt Q8N4C8)
T20 construct: purchased DiscoveRx KINOMEscan

[7] = target: T21, ABL1(F317L)-nonphosphorylated (Homo sapiens, UniProt P00519, F317L)
T21 construct: purchased DiscoveRx KINOMEscan

AAK1 = target: T22, AAK1 (Homo sapiens, UniProt Q2M2I8)
T22 construct: purchased DiscoveRx KINOMEscan

LIMK2 = target: T23, LIMK2 (Homo sapiens, UniProt P53671)
T23 construct: purchased DiscoveRx KINOMEscan

MKK7 = target: T24, MKK7 (Homo sapiens, UniProt O14733)
T24 construct: purchased DiscoveRx KINOMEscan

ADCK4 = target: T25, ADCK4 (Homo sapiens, UniProt Q96D53)
T25 construct: purchased DiscoveRx KINOMEscan

OSR1 = target: T26, OSR1 (Homo sapiens, UniProt O95747)
T26 construct: purchased DiscoveRx KINOMEscan

CSF1R = target: T27, CSF1R (Homo sapiens, UniProt P07333)
T27 construct: purchased DiscoveRx KINOMEscan

PRKG2 = target: T28, PRKG2 (Homo sapiens, UniProt Q13237)
T28 construct: purchased DiscoveRx KINOMEscan

PIK3CA(Q546K) = target: T29, PIK3CA(Q546K) (Homo sapiens, UniProt P42336, Q546K)
T29 construct: purchased DiscoveRx KINOMEscan

FLT3(D835H) = target: T30, FLT3(D835H) (Homo sapiens, UniProt P36888, D835H)
T30 construct: purchased DiscoveRx KINOMEscan

EPHA2 = target: T31, EPHA2 (Homo sapiens, UniProt P29317)
T31 construct: purchased DiscoveRx KINOMEscan

CDK3 = target: T32, CDK3 (Homo sapiens, UniProt Q00526)
T32 construct: purchased DiscoveRx KINOMEscan

CAMK1 = target: T33, CAMK1 (Homo sapiens, UniProt Q14012)
T33 construct: purchased DiscoveRx KINOMEscan

CIT = target: T34, CIT (Homo sapiens, UniProt O14578)
T34 construct: purchased DiscoveRx KINOMEscan

SBK1 = target: T35, SBK1 (Homo sapiens, UniProt Q52WX2)
T35 construct: purchased DiscoveRx KINOMEscan

[8] = target: T36, ABL1(M351T)-phosphorylated (Homo sapiens, UniProt P00519, M351T)
T36 construct: purchased DiscoveRx KINOMEscan

PIP5K2C = target: T37, PIP5K2C (Homo sapiens, UniProt Q8TBX8)
T37 construct: purchased DiscoveRx KINOMEscan

TLK2 = target: T38, TLK2 (Homo sapiens, UniProt Q86UE8)
T38 construct: purchased DiscoveRx KINOMEscan

HCK = target: T39, HCK (Homo sapiens, UniProt P08631)
T39 construct: purchased DiscoveRx KINOMEscan

EPHA5 = target: T40, EPHA5 (Homo sapiens, UniProt P54756)
T40 construct: purchased DiscoveRx KINOMEscan

T33 sequence (Q14012 whole entry): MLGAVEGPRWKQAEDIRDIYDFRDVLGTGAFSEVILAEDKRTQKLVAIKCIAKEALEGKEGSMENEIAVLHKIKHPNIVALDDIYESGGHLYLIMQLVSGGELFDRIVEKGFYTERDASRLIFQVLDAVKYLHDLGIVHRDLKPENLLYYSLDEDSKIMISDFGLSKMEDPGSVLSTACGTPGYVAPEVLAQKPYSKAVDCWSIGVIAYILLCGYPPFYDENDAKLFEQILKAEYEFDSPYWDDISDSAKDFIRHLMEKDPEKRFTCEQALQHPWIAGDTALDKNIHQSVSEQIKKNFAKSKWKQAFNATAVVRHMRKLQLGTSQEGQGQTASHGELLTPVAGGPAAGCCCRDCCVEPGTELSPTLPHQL
T12 sequence (O75582 1-387 limits assumed): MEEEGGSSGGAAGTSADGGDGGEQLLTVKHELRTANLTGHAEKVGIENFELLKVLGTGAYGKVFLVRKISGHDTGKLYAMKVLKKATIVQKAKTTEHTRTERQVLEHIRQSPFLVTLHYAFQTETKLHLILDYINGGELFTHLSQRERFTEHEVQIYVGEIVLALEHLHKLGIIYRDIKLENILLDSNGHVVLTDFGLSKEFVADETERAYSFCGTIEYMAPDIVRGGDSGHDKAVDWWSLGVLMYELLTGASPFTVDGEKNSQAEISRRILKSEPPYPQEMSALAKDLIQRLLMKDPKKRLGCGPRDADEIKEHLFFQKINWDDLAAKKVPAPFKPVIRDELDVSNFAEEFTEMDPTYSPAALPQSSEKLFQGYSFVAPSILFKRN
T24 sequence (O14733 whole entry): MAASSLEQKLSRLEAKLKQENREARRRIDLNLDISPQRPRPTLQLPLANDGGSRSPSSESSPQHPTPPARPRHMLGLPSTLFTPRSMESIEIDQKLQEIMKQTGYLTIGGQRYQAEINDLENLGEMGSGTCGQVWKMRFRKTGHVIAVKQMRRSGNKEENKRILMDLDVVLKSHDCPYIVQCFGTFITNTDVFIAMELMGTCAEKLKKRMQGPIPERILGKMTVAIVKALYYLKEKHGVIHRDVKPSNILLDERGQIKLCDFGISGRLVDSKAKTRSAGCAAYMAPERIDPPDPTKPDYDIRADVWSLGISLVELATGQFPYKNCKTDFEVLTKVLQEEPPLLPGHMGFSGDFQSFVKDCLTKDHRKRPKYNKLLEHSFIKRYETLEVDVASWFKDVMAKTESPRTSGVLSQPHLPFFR
T27 sequence (P07333 20-972): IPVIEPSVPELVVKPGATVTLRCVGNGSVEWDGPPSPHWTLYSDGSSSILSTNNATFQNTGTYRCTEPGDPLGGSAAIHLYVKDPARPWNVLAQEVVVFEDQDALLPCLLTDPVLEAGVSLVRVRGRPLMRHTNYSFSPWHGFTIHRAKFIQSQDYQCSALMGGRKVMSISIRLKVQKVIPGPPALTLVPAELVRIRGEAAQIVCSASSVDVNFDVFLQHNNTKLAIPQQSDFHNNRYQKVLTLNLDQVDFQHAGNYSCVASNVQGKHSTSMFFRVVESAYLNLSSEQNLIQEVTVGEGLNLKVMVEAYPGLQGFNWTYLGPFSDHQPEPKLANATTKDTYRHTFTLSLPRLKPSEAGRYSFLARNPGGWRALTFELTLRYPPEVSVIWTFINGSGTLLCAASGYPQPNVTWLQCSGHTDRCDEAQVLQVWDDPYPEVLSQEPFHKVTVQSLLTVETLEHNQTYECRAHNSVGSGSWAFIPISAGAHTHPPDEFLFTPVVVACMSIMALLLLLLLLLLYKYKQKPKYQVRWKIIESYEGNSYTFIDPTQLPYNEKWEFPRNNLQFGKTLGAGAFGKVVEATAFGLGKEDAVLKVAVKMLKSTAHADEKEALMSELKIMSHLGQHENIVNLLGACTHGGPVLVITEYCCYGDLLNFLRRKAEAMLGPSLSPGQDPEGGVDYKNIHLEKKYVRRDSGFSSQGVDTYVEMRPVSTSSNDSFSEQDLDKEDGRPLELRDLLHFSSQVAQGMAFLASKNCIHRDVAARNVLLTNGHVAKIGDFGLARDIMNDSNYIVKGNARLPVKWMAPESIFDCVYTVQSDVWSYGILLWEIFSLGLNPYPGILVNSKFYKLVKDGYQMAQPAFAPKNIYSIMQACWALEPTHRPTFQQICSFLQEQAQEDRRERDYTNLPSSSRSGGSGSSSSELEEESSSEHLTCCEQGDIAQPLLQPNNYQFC
T34 sequence (O14578 whole entry): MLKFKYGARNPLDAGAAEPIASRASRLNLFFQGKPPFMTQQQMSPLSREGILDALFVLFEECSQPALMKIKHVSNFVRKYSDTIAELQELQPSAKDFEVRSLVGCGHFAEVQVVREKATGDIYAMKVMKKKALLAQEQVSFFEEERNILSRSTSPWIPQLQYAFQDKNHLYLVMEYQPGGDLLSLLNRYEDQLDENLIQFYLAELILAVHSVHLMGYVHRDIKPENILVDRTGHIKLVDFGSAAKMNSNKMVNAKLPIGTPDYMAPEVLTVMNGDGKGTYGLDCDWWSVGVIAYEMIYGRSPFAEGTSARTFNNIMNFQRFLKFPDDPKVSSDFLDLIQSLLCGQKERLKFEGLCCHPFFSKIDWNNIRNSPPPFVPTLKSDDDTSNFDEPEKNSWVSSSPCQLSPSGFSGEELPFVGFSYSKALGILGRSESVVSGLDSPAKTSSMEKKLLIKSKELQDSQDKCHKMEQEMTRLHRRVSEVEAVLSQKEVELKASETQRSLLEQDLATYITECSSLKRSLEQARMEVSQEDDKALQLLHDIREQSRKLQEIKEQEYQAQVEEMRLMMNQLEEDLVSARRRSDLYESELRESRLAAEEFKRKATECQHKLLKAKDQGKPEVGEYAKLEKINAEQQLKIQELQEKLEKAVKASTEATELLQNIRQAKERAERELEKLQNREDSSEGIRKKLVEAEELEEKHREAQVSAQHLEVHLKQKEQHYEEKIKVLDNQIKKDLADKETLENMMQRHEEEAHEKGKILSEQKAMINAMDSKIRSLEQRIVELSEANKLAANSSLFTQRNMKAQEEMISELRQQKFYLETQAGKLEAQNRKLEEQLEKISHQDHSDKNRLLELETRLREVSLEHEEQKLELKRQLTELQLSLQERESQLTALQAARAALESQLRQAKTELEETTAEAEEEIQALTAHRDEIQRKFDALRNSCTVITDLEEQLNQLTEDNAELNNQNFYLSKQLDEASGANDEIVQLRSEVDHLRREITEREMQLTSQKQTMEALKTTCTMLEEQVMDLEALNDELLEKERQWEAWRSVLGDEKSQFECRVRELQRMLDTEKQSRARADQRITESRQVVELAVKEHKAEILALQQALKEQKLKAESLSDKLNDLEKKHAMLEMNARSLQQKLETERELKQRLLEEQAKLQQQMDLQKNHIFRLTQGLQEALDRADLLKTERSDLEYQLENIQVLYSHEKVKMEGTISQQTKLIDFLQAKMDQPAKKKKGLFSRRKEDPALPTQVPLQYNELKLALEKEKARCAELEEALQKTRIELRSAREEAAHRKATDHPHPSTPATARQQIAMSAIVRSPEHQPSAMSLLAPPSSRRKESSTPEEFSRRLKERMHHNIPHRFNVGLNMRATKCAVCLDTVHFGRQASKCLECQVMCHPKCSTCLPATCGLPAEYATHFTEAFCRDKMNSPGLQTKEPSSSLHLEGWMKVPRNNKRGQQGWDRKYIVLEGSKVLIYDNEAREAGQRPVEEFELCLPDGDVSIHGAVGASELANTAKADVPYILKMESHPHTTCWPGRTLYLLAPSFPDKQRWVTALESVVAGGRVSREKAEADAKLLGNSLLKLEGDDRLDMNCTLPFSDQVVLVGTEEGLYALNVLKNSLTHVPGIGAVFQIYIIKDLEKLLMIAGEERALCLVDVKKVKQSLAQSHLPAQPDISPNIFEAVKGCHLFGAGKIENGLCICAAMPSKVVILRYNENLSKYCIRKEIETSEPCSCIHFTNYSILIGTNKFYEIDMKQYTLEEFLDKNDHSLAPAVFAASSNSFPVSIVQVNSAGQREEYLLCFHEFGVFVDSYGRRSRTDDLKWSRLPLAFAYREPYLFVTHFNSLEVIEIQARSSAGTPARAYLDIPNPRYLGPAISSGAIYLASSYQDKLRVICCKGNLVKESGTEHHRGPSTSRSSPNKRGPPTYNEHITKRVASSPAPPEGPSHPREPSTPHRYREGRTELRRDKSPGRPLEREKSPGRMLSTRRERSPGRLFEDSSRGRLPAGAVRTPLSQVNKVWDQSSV
T23 sequence (P53671 whole entry): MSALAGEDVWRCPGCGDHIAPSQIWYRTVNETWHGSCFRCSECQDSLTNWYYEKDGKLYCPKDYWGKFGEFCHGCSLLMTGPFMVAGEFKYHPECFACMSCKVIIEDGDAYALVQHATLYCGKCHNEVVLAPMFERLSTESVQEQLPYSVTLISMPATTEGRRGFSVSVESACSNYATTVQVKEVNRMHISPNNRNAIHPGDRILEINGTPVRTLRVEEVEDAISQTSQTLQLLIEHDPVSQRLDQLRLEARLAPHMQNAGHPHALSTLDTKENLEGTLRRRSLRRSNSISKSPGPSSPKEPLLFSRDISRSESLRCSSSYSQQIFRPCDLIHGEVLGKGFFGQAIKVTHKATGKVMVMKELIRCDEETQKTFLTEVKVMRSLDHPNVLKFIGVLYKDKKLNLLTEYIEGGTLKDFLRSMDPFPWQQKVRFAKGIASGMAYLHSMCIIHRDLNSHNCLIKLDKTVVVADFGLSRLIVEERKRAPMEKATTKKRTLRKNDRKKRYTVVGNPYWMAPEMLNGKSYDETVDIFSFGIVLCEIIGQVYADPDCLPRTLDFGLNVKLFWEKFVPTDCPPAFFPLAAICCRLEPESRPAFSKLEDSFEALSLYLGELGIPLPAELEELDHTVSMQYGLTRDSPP

Cc1nc(NC(=O)[C@@H](N)C(C)C)sc1-c1cnc(Cl)c(NS(=O)(=O)c2ccccc2)c1 [PI3KD-IN-015]
KinomeScan BRK (BRK): 92 | KinomeScan PIK3CA(E545A) (PIK3CA(E545A)): 5.2 | KinomeScan EGFR(S752-I759del) (EGFR(S752-I759del)): 100 | KinomeScan IKK-alpha (IKK-alpha): 95 | KinomeScan MLCK (MLCK): 95 | KinomeScan AMPK-alpha2 (AMPK-alpha2): 100 | KinomeScan RIPK4 (RIPK4): 100 | KinomeScan SIK2 (SIK2): 95 | KinomeScan KIT-autoinhibited (KIT-autoinhibited): 100 | KinomeScan ABL1(H396P)-phosphorylated [1]: 78 | KinomeScan MET (MET): 100 | KinomeScan RPS6KA4(Kin.Dom.2-C-terminal) [2]: 83 | KinomeScan RPS6KA5(Kin.Dom.1-N-terminal) [3]: 100 | KinomeScan PIK3C2B (PIK3C2B): 2.2 | KinomeScan ABL1(Y253F)-phosphorylated [4]: 100 | KinomeScan MARK1 (MARK1): 100 | KinomeScan ABL2 (ABL2): 99 | KinomeScan EGFR(L747-E749del, A750P) [5]: 100 | KinomeScan EPHB3 (EPHB3): 100 | KinomeScan RPS6KA5(Kin.Dom.2-C-terminal) [6]: 100 | KinomeScan STK36 (STK36): 100 | KinomeScan MINK (MINK): 100 | KinomeScan ABL1(F317L)-nonphosphorylated [7]: 100 | KinomeScan AAK1 (AAK1): 100 | KinomeScan LIMK2 (LIMK2): 100 | KinomeScan MKK7 (MKK7): 98 | KinomeScan ADCK4 (ADCK4): 95 | KinomeScan OSR1 (OSR1): 75 | KinomeScan CSF1R (CSF1R): 67 | KinomeScan PRKG2 (PRKG2): 100 | KinomeScan PIK3CA(Q546K) (PIK3CA(Q546K)): 4.1 | KinomeScan FLT3(D835H) (FLT3(D835H)): 94 | KinomeScan EPHA2 (EPHA2): 100 | KinomeScan CDK3 (CDK3): 100 | KinomeScan CAMK1 (CAMK1): 98 | KinomeScan CIT (CIT): 100 | KinomeScan SBK1 (SBK1): 66 | KinomeScan ABL1(M351T)-phosphorylated [8]: 98 | KinomeScan PIP5K2C (PIP5K2C): 90 | KinomeScan TLK2 (TLK2): 100 | KinomeScan HCK (HCK): 100 | KinomeScan EPHA5 (EPHA5): 100
